Results published in patent US9149475B2, “Protein kinase C inhibitors and uses thereof” (Rigel Pharmaceuticals, Inc., priority 2009, dated 2015).

Tested on: Human primary T cells
Assay: IL-2 ELISA, human primary T cell, anti-CD3+CD28+ (whole cell assay)
Type: cell-based
Conditions: Homo sapiens, T-cell, 24 h, human primary T cells stimulated with anti-CD3 + anti-CD28, 24 hours
Summary of the method: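 IL-2 secreted over 24 h at 37° C was quantified by ELISA after plate-bound αCD3 (1 μg/ml) and αCD28 (5 μg/ml) stimulation, or PMA (0.5 ng/ml) with ionomycin (0.1 μM) as counter-screen. Cells were IL-2-starved primary human T cells, expanded from volunteer PBMC and exposed to compound for 1 hr beforehand.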

Row | IC50 | Structure (SMILES)
1 | > 1000 nM | CC(=O)N1C(C)(C)CC(Nc2nc(Nc3ccc(OC4CCN(C(C)C)CC4)c(OC(F)F)c3)ncc2F)CC1(C)C [III-4, 1-(4-(2-(3-(Difluoromethoxy)-4-(1-isopropylpiperidin-4-yloxy)phenylamino)-5-fluoropyrimidin-4-ylamino)-2,2,6,6-tetramethylpiperidin-1-yl)ethanone]
2 | 250 to 500 nM | CC1CC(Nc2nc(Nc3cccc(-n4cnnn4)c3)ncc2F)CC(C)N1C1CC1 (stereo not drawn) [III-5, N^2-(3-(1H-tetrazol-1-yl)phenyl)-N4-(1-cyclopropyl-2,6-dimethylpiperidin-4-yl)-5-fluoropyrimidine-2,4-diamine]
3 | 250 to 500 nM | Cc1ccc(Nc2ncc(F)c(NC3CC(C)N(C4CC4)C(C)C3)n2)cc1-n1cnnn1 (stereo not drawn) [III-6, N^4-(1-cyclopropyl-2,6-dimethylpiperidin-4-yl)-5-fluoro-N2-(4-methyl-3-(1H-tetrazol-1-yl)phenyl)pyrimidine-2,4-diamine]
4 | < 250 nM | COc1cc(Nc2ncc(F)c(NC3CC(C)N(C4CC4)C(C)C3)n2)cc(-n2cnnn2)c1 (stereo not drawn) [III-7, N^4-(1-cyclopropyl-2,6-dimethylpiperidin-4-yl)-5-fluoro-N2-(3-methoxy-5-(1H-tetrazol-1-yl)phenyl)pyrimidine-2,4-diamine]
5 | < 250 nM | Cc1nnnn1-c1cccc(Nc2ncc(F)c(NC3CC(C)N(C4CC4)C(C)C3)n2)c1 (stereo not drawn) [III-8, N^4-(1-cyclopropyl-2,6-dimethylpiperidin-4-yl)-5-fluoro-N2-(3-(5-methyl-1H-tetrazol-1-yl)phenyl)pyrimidine-2,4-diamine]
6 | 250 to 500 nM | CC1CC(Nc2nc(Nc3cccc(-n4nnnc4SCC(F)(F)F)c3)ncc2F)CC(C)N1C1CC1 (stereo not drawn) [III-9, N^4-(1-cyclopropyl-2,6-dimethylpiperidin-4-yl)-5-fluoro-N2-(3-(5-(2,2,2-trifluoroethylthio)-1H-tetrazol-1-yl)phenyl)pyrimidine-2,4-diamine]
7 | 250 to 500 nM | CSc1nnnn1-c1cccc(Nc2ncc(F)c(NC3CC(C)N(C4CC4)C(C)C3)n2)c1 (stereo not drawn) [III-10, N^4-(1-cyclopropyl-2,6-dimethylpiperidin-4-yl)-5-fluoro-N2-(3-(5-(methylthio)-1H-tetrazol-1-yl)phenyl)pyrimidine-2,4-diamine]
8 | 250 to 500 nM | CC1CC(Nc2nc(Nc3ccc(F)c(-n4cnnn4)c3)ncc2F)CC(C)N1C1CC1 (stereo not drawn) [III-11, N^4-(1-cyclopropyl-2,6-dimethylpiperidin-4-yl)-5-fluoro-N^2-(4-fluoro-3-(1H-tetrazol-1-yl)phenyl)pyrimidine-2,4-diamine]
9 | > 1000 nM | CC(=O)N1CCC(Oc2ccc(Nc3ncc(F)c(NC4CC(C)(C)N(C)C(C)(C)C4)n3)cc2F)CC1 [III-12, 1-(4-(2-fluoro-4-(5-fluoro-4-(1,2,2,6,6-pentamethylpiperidin-4-ylamino)pyrimidin-2-ylamino)phenoxy)piperidin-1-yl)ethanone]
10 | > 1000 nM | CC(=O)N1CCC(Oc2ccc(Nc3ncc(F)c(NC4CC(C)(C)NC(C)(C)C4)n3)cc2F)CC1 [III-13, 1-(4-(2-fluoro-4-(5-fluoro-4-(2,2,6,6-tetramethylpiperidin-4-ylamino)pyrimidin-2-ylamino)phenoxy)piperidin-1-yl)ethanone]
11 | > 1000 nM | CN1C(C)(C)CC(Nc2nc(Nc3ccc(OC4CCN(S(C)(=O)=O)CC4)c(F)c3)ncc2F)CC1(C)C [III-14, 5-fluoro-N2-(3-fluoro-4-(1-(methylsulfonyl)piperidin-4-yloxy)phenyl)-N4-(1,2,2,6,6-pentamethylpiperidin-4-yl)pyrimidine-2,4-diamine]
12 | > 1000 nM | CC1(C)CC(Nc2nc(Nc3ccc(OC4CCN(S(C)(=O)=O)CC4)c(F)c3)ncc2F)CC(C)(C)N1 [III-15, 5-fluoro-N2-(3-fluoro-4-(1-(methylsulfonyl)piperidin-4-yloxy)phenyl)-N4-(2,2,6,6-tetramethylpiperidin-4-yl)pyrimidine-2,4-diamine]
13 | > 1000 nM | CCNC(=O)N1CCC(Oc2ccc(Nc3ncc(F)c(NC4CC(C)(C)N(C)C(C)(C)C4)n3)cc2F)CC1 [III-16, N-ethyl-4-(2-fluoro-4-(5-fluoro-4-(1,2,2,6,6-pentamethylpiperidin-4-ylamino)pyrimidin-2-ylamino)phenoxy)piperidine-1-carboxamide]
14 | > 1000 nM | CCNC(=O)N1CCC(Oc2ccc(Nc3ncc(F)c(NC4CC(C)(C)NC(C)(C)C4)n3)cc2F)CC1 [III-17, N-ethyl-4-(2-fluoro-4-(5-fluoro-4-(2,2,6,6-tetramethylpiperidin-4-ylamino)pyrimidin-2-ylamino)phenoxy)piperidine-1-carboxamide]
15 | < 250 nM | CC(C)N1CCC(Oc2ccc(Nc3ncc(F)c(NC4CC(C)(C)N(C)C(C)(C)C4)n3)cc2F)CC1 [III-18, 5-fluoro-N2-(3-fluoro-4-(1-isopropylpiperidin-4-yloxy)phenyl)-N4-(1,2,2,6,6-pentamethylpiperidin-4-yl)pyrimidine-2,4-diamine]
16 | 250 to 500 nM | CC(C)N1CCC(Oc2ccc(Nc3ncc(F)c(NC4CC(C)(C)NC(C)(C)C4)n3)cc2F)CC1 [III-19, 5-fluoro-N2-(3-fluoro-4-(1-isopropylpiperidin-4-yloxy)phenyl)-N4-(2,2,6,6-tetramethylpiperidin-4-yl)pyrimidine-2,4-diamine]
17 | 250 to 500 nM | CN1C(C)(C)CC(Nc2nc(Nc3ccc(OC4CCN(S(C)(=O)=O)CC4)c(OC(F)F)c3)ncc2F)CC1(C)C [III-20, N2-(3-(difluoromethoxy)-4-(1-(methylsulfonyl)piperidin-4-yloxy)phenyl)-5-fluoro-N4-(1,2,2,6,6-pentamethylpiperidin-4-yl)pyrimidine-2,4-diamine]
18 | 500 to 1000 nM | CC1(C)CC(Nc2nc(Nc3ccc(OC4CCN(S(C)(=O)=O)CC4)c(OC(F)F)c3)ncc2F)CC(C)(C)N1 [III-21, N2-(3-(difluoromethoxy)-4-(1-(methylsulfonyl)piperidin-4-yloxy)phenyl)-5-fluoro-N4-(2,2,6,6-tetramethylpiperidin-4-yl)pyrimidine-2,4-diamine]
19 | < 250 nM | CN1C(C)(C)CC(Nc2nc(Nc3ccc(OC4CCOCC4)c(OC(F)F)c3)ncc2F)CC1(C)C [III-22, N2-(3-(difluoromethoxy)-4-(tetrahydro-2H-pyran-4-yloxy)phenyl)-5-fluoro-N4-(1,2,2,6,6-pentamethylpiperidin-4-yl)pyrimidine-2,4-diamine]
20 | 250 to 500 nM | CC1(C)CC(Nc2nc(Nc3ccc(OC4CCOCC4)c(OC(F)F)c3)ncc2F)CC(C)(C)N1 [III-23, N2-(3-(difluoromethoxy)-4-(tetrahydro-2H-pyran-4-yloxy)phenyl)-5-fluoro-N4-(2,2,6,6-tetramethylpiperidin-4-yl)pyrimidine-2,4-diamine]
21 | 500 to 1000 nM | CN1C(C)(C)CC(Nc2nc(Nc3ccc(OC4CCOCC4)c(F)c3)ncc2F)CC1(C)C [III-24, 5-fluoro-N2-(3-fluoro-4-(tetrahydro-2H-pyran-4-yloxy)phenyl)-N4-(1,2,2,6,6-pentamethylpiperidin-4-yl)pyrimidine-2,4-diamine]
22 | 500 to 1000 nM | CN1C(C)(C)CC(Nc2nc(Nc3cc(F)c(OC4CCOCC4)c(F)c3)ncc2F)CC1(C)C [III-25, N2-(3,5-difluoro-4-(tetrahydro-2H-pyran-4-yloxy)phenyl)-5-fluoro-N4-(1,2,2,6,6-pentamethylpiperidin-4-yl)pyrimidine-2,4-diamine]
23 | 500 to 1000 nM | CC1(C)CC(Nc2nc(Nc3cc(F)c(OC4CCOCC4)c(F)c3)ncc2F)CC(C)(C)N1 [III-26, N2-(3,5-difluoro-4-(tetrahydro-2H-pyran-4-yloxy)phenyl)-5-fluoro-N4-(2,2,6,6-tetramethylpiperidin-4-yl)pyrimidine-2,4-diamine]
24 | 250 to 500 nM | CN1C(C)(C)CC(Nc2nc(Nc3ccc(OC4CCNCC4)c(OC(F)F)c3)ncc2F)CC1(C)C [III-27, N2-(3-(difluoromethoxy)-4-(piperidin-4-yloxy)phenyl)-5-fluoro-N4-(1,2,2,6,6-pentamethylpiperidin-4-yl)pyrimidine-2,4-diamine]
25 | > 1000 nM | CC1(C)CC(Nc2nc(Nc3ccc(OC4CCNCC4)c(OC(F)F)c3)ncc2F)CC(C)(C)N1 [III-28, N2-(3-(difluoromethoxy)-4-(piperidin-4-yloxy)phenyl)-5-fluoro-N4-(2,2,6,6-tetramethylpiperidin-4-yl)pyrimidine-2,4-diamine]
26 | > 1000 nM | CN1C(C)(C)CC(Nc2nc(Nc3ccc(OC4CCS(=O)(=O)CC4)c(F)c3)ncc2F)CC1(C)C [III-29, N2-[4-(1,1-Dioxo-hexahydro-1λ6-thiopyran-4-yloxy)-3-fluoro-phenyl]-5-fluoro-N4-(1,2,2,6,6-pentamethyl-piperidin-4-yl)-pyrimidine-2,4-diamine]
27 | > 1000 nM | CC1(C)CC(Nc2nc(Nc3ccc(OC4CCS(=O)(=O)CC4)c(OC(F)F)c3)ncc2F)CC(C)(C)N1 [III-32, N2-[3-Difluoromethoxy-4-(1,1-dioxo-hexahydro-1λ6-thiopyran-4-yloxy)-phenyl]-5-fluoro-N4-(2,2,6,6-tetramethyl-piperidin-4-yl)-pyrimidine-2,4-diamine]
28 | > 1000 nM | CN1C(C)(C)CC(Nc2nc(Nc3ccc(OC4CCN(CC(N)=O)CC4)c(F)c3)ncc2F)CC1(C)C [III-33, 2-(4-(2-Fluoro-4-(5-fluoro-4-(1,2,2,6,6-pentamethylpiperidin-4-ylamino)pyrimidin-2-ylamino)phenoxy)piperidin-1-yl)acetamide]
29 | > 1000 nM | CC1(C)CC(Nc2nc(Nc3ccc(OC4CCN(CC(N)=O)CC4)c(F)c3)ncc2F)CC(C)(C)N1 [III-34, 2-(4-(2-Fluoro-4-(5-fluoro-4-(2,2,6,6-tetramethylpiperidin-4-ylamino)pyrimidin-2-ylamino)phenoxy)piperidin-1-yl)acetamide]
30 | 250 to 500 nM | CN1C(C)(C)CC(Nc2nc(Nc3ccc(OC4CCN(CC(N)=O)CC4)c(OC(F)F)c3)ncc2F)CC1(C)C [III-35, 2-(4-(2-(Difluoromethoxy)-4-(5-fluoro-4-(1,2,2,6,6-pentamethylpiperidin-4-ylamino)pyrimidin-2-ylamino)phenoxy)piperidin-1-yl)acetamide]
